Results: patent publication US8039512B2, “Biologically active oils” (priority 2003, dated 2011)

Experiments:
[1] = system: Secreted PGE2 from 3T3 cells; experiment: In-vitro prostaglandin PGE2 (COX pathways) EIA assay; type: cell-based, mouse; conditions: 50 µM
Experimental: This assay was performed using Cayman chemicals Prostaglandin E2 EIA Kit-Monoclonal, according to kit protocol. Each sample was assayed at three dilutions in duplicate. […] In particular the two samples produced dose dependent inhibition of secreted PGE2 from the mouse fibroblast cell line equivalent to or better than aspirin under the test conditions.

[2] = system: 5-lipoxygenase pathway of human neutrophils (PMN); experiment: Lipoxygenase pathways (leukotrienes and HETE) HPLC assay in isolated PMN; type: cell-based; conditions: for 5-HETE synthesis / Isomer 1 (all trans isomer of LTB4) synthesis / Isomer 2 (all trans isomer of LTB4) synthesis / LTB4 synthesis: human PMN, arachidonic acid + A23187
Description: The HPLC assay readily quantifies 5-HETE, 12-HETE, LTB4, and the two all trans-isomers of LTB-4, and thus gives quantitative data on the relative activities of the enzymes in the 5-lipoxygenase of neutrophils, as well as data on the 12-lipoxygenase pathway of platelets. Thus it is an ideal system to test potential inhibitors of these pathways.
The effects of inhibitory compounds may be tested on isolated human PMN and platelets, in which the pathways are activated by treating the PMN or platelets with arachidonic acid and the calcium ionophore A23187. The addition of arachidonic acid eliminates the PLA-2 step, and provides high levels of substrate for the pathway. Furthermore, such activation is known to maximally drive the pathway to produce the greatest synthesis of all the metabolites, and thus is also the least sensitive to inhibition.
All samples were dissolved in ethanol to give stock solutions of 10 mg/mL. Two further dilutions of each stock solution were made in ethanol at 5 and 1 mg/mL, making 10 test samples in all. […]
1. Up to 100 mL of blood was taken from a normal volunteer and anticoagulated with EDTA. Two mL of 4.5% EDTA in water was mixed with each 10 mL of blood.
2. A further 2 mL of 6.0% Dextran T500 was added to each of the 12 mL mixtures in 1, and placed in a water bath at 37° C., to sediment the red blood cells.
3. Following sedimentation in 2, the supernatant was carefully laid over 5 mL of Percoll, density 1.070. This was then spun at 500 g for 35 mins.
4. All the cells (PMN and remaining RBC) below the Percoll interface were removed with a plastic pipette and diluted at least 3-fold with Ca^2+/Mg^2+-free Dulbecco's phosphate buffer, and centrifuged at 600 g for 10 mins.
5. Following 4, the supernatant was carefully aspirated, and the pellet gently mixed with 1 mL of Ca^2+/Mg^2+-free Dulbecco's phosphate buffer by aspiration/deaspiration into a 1 ml plastic disposable pipette. A further 40 mL of Ca^2+/Mg^2+-free Dulbecco's phosphate buffer was then added and mixed by inversion. The cell suspension was then centrifuged at 600 g for 10 mins. 6. Following centrifugation, the supernatant was removed and the PMN pellet lysed with 10 mL of a 0.2% cold sodium chloride solution for 20 secs, followed by the addition of 10 mL of a 1.6% cold sodium chloride solution, and centrifuged at 600 g for 10 mins. 7. Following 6, the PMN pellet was vigorously mixed with 1 mL of Hank's buffer by rapid aspiration/deaspiration into a 1 mL plastic disposable pipette, and then finally suspended in Hank's buffer at 2.4×10^6 PMN/ml (as measured using a Coulter counter), in preparation for the leukotriene assay. Activation of Leukotriene Pathway 1. 1 mL of PMN suspension (2.4×10^6 PMN/ml) was transferred to a 13 mL glass tube (chromic acid washed) and placed in a water bath at 37° C. for 5 min prewarming. 2. Following prewarming, at time zero, 10 μL of each test compound in methanol (or equivalent volumes of methanol as control) was added to quadruplicate tubes over a 20 sec period. 3. At 5 min, 5 µL of 2 mM arachidonic acid (10 μM final) was added (4 tubes/20 secs). 4. At 10 min, 5 µL of 1 mM calcium ionophore (A23187) (5 μM final) was added (4 tubes/20 secs). 5. At 15 min the reaction was terminated by the addition of 100 μL 100 mM citric acid. This lowers the pH of the aqueous phase to less than 3, which is necessary for the extraction of the leukotrienes into the organic phase. 6. The pH of several samples was checked to ensure pH<3.0. (This is important). 7. 40 ng Prostaglandin B2 and 166 ng 15-HETE were added to each tube as the internal standard for LTB4 and 5-HETE respectively, and samples were mixed. 8. For Standard Curves LTB4 [1 ng/μl] (for a standard curve in the range 0-50 ng) and 5-HETE [5 ng/μL] (standard curve range 0-250 ng) were added to tubes containing 1 mL PMN, 100 μL of 100 mM citric acid and 40 ng PGB2 and 166 ng 15-HETE. 9. All tubes were vortexed. 10. […]

CC(=O)Oc1ccccc1C(=O)O [Aspirin]
% Control (secreted PGE2) ([1]; A23187): 72.6 % Control
% Control (secreted PGE2) ([1]; A23187, listed as aspirin): around 72.6 % Control

CCC(C)CCCCCCCCCCC(=O)O (centres unmarked) [Sample 12-MTA, 12-methyl tetradecanoic acid]
5-HETE synthesis ([2]; 2 μg/mL): 55 ± 9 percentage of the methanol control
Isomer 1 (all trans isomer of LTB4) synthesis ([2]; 2 μg/mL): 73 ± 13 percentage of the methanol control
Isomer 2 (all trans isomer of LTB4) synthesis ([2]; 2 μg/mL): 60 ± 17 percentage of the methanol control
LTB4 synthesis ([2]; 2 μg/mL): 84 ± 5 percentage of the methanol control
5-HETE synthesis ([2]; 5 μg/mL): 65 ± 3 percentage of the methanol control
Isomer 1 (all trans isomer of LTB4) synthesis ([2]; 5 μg/mL): 101 ± 12 percentage of the methanol control
Isomer 2 (all trans isomer of LTB4) synthesis ([2]; 5 μg/mL): 97 ± 9 percentage of the methanol control
LTB4 synthesis ([2]; 5 μg/mL): 101 ± 12 percentage of the methanol control
5-HETE synthesis ([2]; 10 μg/mL): 46 ± 11 percentage of the methanol control
Isomer 1 (all trans isomer of LTB4) synthesis ([2]; 10 μg/mL): 59 ± 14 percentage of the methanol control
Isomer 2 (all trans isomer of LTB4) synthesis ([2]; 10 μg/mL): 68 ± 14 percentage of the methanol control
LTB4 synthesis ([2]; 10 μg/mL): 70 ± 17 percentage of the methanol control
5-HETE synthesis ([2]; 20 μg/mL): 2 ± 4 percentage of the methanol control
Isomer 1 (all trans isomer of LTB4) synthesis ([2]; 20 μg/mL): 0 percentage of the methanol control
Isomer 2 (all trans isomer of LTB4) synthesis ([2]; 20 μg/mL): 0 percentage of the methanol control
LTB4 synthesis ([2]; 20 μg/mL): 0 percentage of the methanol control
5-HETE synthesis ([2]; 50 μg/mL): 0 percentage of the methanol control
Isomer 1 (all trans isomer of LTB4) synthesis ([2]; 50 μg/mL): 0 percentage of the methanol control
Isomer 2 (all trans isomer of LTB4) synthesis ([2]; 50 μg/mL): 0 percentage of the methanol control
LTB4 synthesis ([2]; 50 μg/mL): 0 percentage of the methanol control
Inhibition of the 5-LOX pathway ([2]; as low as 20 μg/mL): 100%
